# According to article PMC3938723, “Learning from Host-Defense Peptides: Cationic, Amphipathic Peptoids with Potent Anticancer Activity” (PLoS ONE, 2014):
# Non-standard residues stand in square brackets, D forms with d. Residues, ends and D or L forms follow the SMILES beside them. Nspe = C[C@H](NCC(=O)O)c1ccccc1; Nlys = NCCCCNCC(=O)O
# Experiments:
# [1] = Analytical RP-HPLC elution as relative measure of molecular hydrophobicity; type: physicochemical; conditions: percentage of acetonitrile at elution, analytic RP-HPLC, C18 column, linear water/acetonitrile (0.1% trifluoroacetic acid) gradient 5%-95% acetonitrile over 30 min
# Source text: Peptoids were synthesized using an ABI 433A peptide synthesizer (Applied Biosystems, Inc.) on Rink amide MBHA resin (EMD Biosciences, Gibbstown, NJ) using the submonomer protocol, [24]. Briefly, the amine on the nascent chain is bromoacetylated or chloroacetylated followed by SN2 displacement of bromide or chloride by a primary amine to form the side chain. Resin-bound peptoids were then exposed to a mixture of trifluoroacetic acid (TFA): triisopropylsilane: water (95∶2.5∶2.5, volume ratio) for 10 minutes to cleave peptoids from the resin. Crude peptoids were purified by reversed-phase high performance liquid chromatography (RP-HPLC) (Waters Corporation) using a C18 column and a linear acetonitrile/water gradient. A final purity >95% as measured by analytical RP-HPLC (Waters Corporation) was achieved, and the identity of each peptoid was confirmed using electrospray ionization mass spectrometry (ESI/MS). Pexiganan was synthesized by standard Fmoc chemistry on an ABI 433A peptide synthesizer ([…]). Unless indicated otherwise, all reagents were purchased from Sigma Aldrich (St. Louis, MO). Among the submonomers used, Nspe was derived from (S)-N-(1-phenylethyl)amine; Npm from benzylamine ([…]); NHis from histamine (2-[4-imidazolyl]ethylamine); NLeu from isobutylamine; NLys from N-tert-butoxycarbonyl-1,4-butanediamine (CNH Technologies, MA). Guanidinylation of NLys was carried out according to the reported procedure. When NHis was used in the peptoid sequence, chloroacetic acid was used. 5(6)-Carboxyfluorescein was used to label the N-terminus of peptoid 1 [28].
# Peptoids were utilized herein as a peptidomimetic scaffold to capture the cationic, amphipathic nature of anticancer peptides, as well as to improve molecular stability and to increase chemical diversity. The design of anticancer peptoids were derived from previous antimicrobial peptoids and were further optimized hererin to improve the activity and selectivity of peptoids against anionic membranes, [24], [25]. […] Several novel variants were designed based on peptoid 1 but with different charges, amphipathicity, length, and helicity to change their activity or selectivity. The sequences of these variants, the solvent composition at RP-HPLC elution as a relative measure of molecular hydrophobicity, molecular net charges and their charge-to-length ratio are summarized in Table 1. […] Pexiganan, a clinically-relevant peptide analog of magainin 2 which was developed for topical treatment for diabetic foot infection, and LL-37, the only known human cathelicidin which is a non-selective antimicrobial peptide, were also tested for comparison.
# MCF-7 cells = experiment: LDH leakage assay (plasma membrane integrity); type: cell-based, human; conditions: 50 µM, LDH leakage caused by cell lysis solution as the 100% control, measured immediately after treatment
# Description: This assay is used to measure the membrane integrity as a function of the amount of cytoplasmic LDH (lactic dehydrogenase) released into the medium. Experiments were carried out according to the protocol of the In Vitro Toxicology Assay Kit, Lactic Dehydrogenase (LDH) based (Sigma-Aldrich). Briefly, cells were plated as described before, and peptoids were diluted similarly but in culturing media without phenol red to reduce background signal. After peptoid treatments, media supernatant were collected and centrifuged to remove any cell debris, and analyzed for LDH activity in a 96-well plate using the kit, absorbance at 490 nm and 690 nm measured using a microplate reader. All the following absorbance difference = A 490nm –A 690nm. Percentage of LDH leakage = (A -A testblank)/(A lysis -A blank)×100, where A is the average absorbance difference of the test wells and A lysis the average absorbance difference of wells with cells treated with cell lysis solution provided by the kit for 45 min. A testblank (media, diluted peptoids and LDH measuring reagents) and A blank (media and LDH measuring reagents) were background absorbance differences measured in the absence of cells.
# These anticancer peptoids exert fast killing in cancer cells and are not affected by the multidrug resistance. […] The LDH assay measures membrane damage by quantifying the leakage of the cytoplasmic enzyme LDH. […]
# mice = experiment: Acute toxicity observation in xenograft mice; type: in vivo; conditions: intratumor injections ~1 mg/kg three times a week, xenograft NSG mice
# Description: 80,000 cells from a dissociated second generation metastatic breast cancer tumor were suspended in Medium 199 containing 25% Matrix Matrigel (Becton Dickinson 354248) and injected into the mammary fat pad of 4–8 week old NOD.Cg-Prkdc^scid Il2rg^tm1Wjl/SzJ (NSG) mice. After two weeks, 100 µl PBS containing 110 µM peptoid 1 or control peptide was injected into the mammary fat pad three times a week, roughly at a dose of 1 mg/kg. Tumor volumes were determined using direct caliper measurements following […] of treatment.
# Human breast cancer cells were implanted in the mammary fat pad of immunocompromised mice.
compound,measurement,setting,value
"C[C@@H](c1ccccc1)N(CC(N)=O)C(=O)CN(C(=O)CN(CCCCN)C(=O)CN(C(=O)CN(C(=O)CN(CCCCN)C(=O)CN(C(=O)CN(C(=O)CN(CCCCN)C(=O)CN(C(=O)CN(C(=O)CNCCCCN)[C@@H](C)c1ccccc1)[C@@H](C)c1ccccc1)[C@@H](C)c1ccccc1)[C@@H](C)c1ccccc1)[C@@H](C)c1ccccc1)[C@@H](C)c1ccccc1)[C@@H](C)c1ccccc1 [Peptoid 1, H-(NLys-Nspe-Nspe)4-NH2] (H-[Nlys][Nspe][Nspe][Nlys][Nspe][Nspe][Nlys][Nspe][Nspe][Nlys][Nspe][Nspe]-NH2)",HPLC elution,[1],65.1 % ACN
same,LDH (enzyme) leakage,MCF-7 cells,~50%
same,acute side effects in mice,mice,without causing any obvious acute side effects
